The nature of data set [1]: Drug uptake in mouse 4T1 cells assessed as increase in fluorescence signal measured after 1 hr by flow cytometry analysis. Type of data set: ADME, cell-based. Conditions: 4t1, 1 h. In general terms: Flow cytometry measures light scatter and fluorescence of single cells or particles in a stream.
Data set [2] is described as follows: Biodistribution in BALB/c mouse assessed as increase in fluorescence signal at 30 uM, iv measured after 30 mins by NIR fluorescence imaging analysis. Type of data set: ADME, organism-based. The following applies: in vivo, 0.5 h.
The nature of data set [3]: Toxicity in BALB/c mouse allografted with mouse 4T1 cells assessed as histopathological change in heart at 100 uM, iv measured after 12 hrs followed by 2.5 W/cm2 NIR laser irradiation for 3 mins by hematoxylin and eosin staining based analysis. The following applies: in vivo. Type of data set: organism-based.
Data set [4] is described as follows: Toxicity in BALB/c mouse allografted with mouse 4T1 cells assessed as histopathological change in liver at 100 uM, iv measured after 12 hrs followed by 2.5 W/cm2 NIR laser irradiation for 3 mins by hematoxylin and eosin staining based analysis. Type of data set: organism-based. Conditions: in vivo.
Data set [5] in a line: Drug uptake in tumor of mouse 4T1 cells allografted in BALB/c mouse assessed as increase in fluorescence signal at 30 uM, iv measured after 12 to 48 hrs by IVIS spectrum in vivo imaging analysis. Conditions: time 12-48 hrs. Format: ADME, organism-based, Neoplasm.
Data set [6] is described as follows: Drug uptake in lymph node of mouse 4T1 cells allografted in BALB/c mouse assessed as increase in fluorescence signal at 30 uM, iv measured after 24 to 48 hrs by NIR fluorescence imaging analysis. Type of data set: ADME, organism-based. Conditions: in vivo, time 24-48 hrs.
Data set [7] can be described thus: AUC 0 to t in Sprague-Dawley rat at 100 uM, iv measured up to 24 hrs by IVIS spectrum imaging analysis. Type of data set: ADME, organism-based. Also on record: time < 24 hrs, dose 100 µM, route iv. Conditions: in vivo.
Data set [8] in a line: Toxicity in BALB/c mouse allografted with mouse 4T1 cells assessed as histopathological change in spleen at 100 uM, iv measured after 12 hrs followed by 2.5 W/cm2 NIR laser irradiation for 3 mins by hematoxylin and eosin staining based analysis. Type of data set: organism-based. Conditions: in vivo.
Data set [9] is described as follows: Toxicity in BALB/c mouse allografted with mouse 4T1 cells assessed as change in body weight at 100 uM, iv treated for 12 hrs followed by 2.5 W/cm2 NIR laser irradiation for 3 mins and measured every 2 days. Type of data set: organism-based. The following applies: in vivo, 48 h, time 2 day.
The test system of data set [10] is 4T1. Briefly: Induction of apoptosis in mouse 4T1 cells allografted in BALB/c mouse assessed as increase in total apoptotic cells at 100 uM, iv measured after 12 hrs followed by 2.5 W/cm2 NIR laser irradiation for 3 mins by TUNEL staining based analysis. Type of data set: functional, organism-based.
The nature of data set [11]: Toxicity in BALB/c mouse allografted with mouse 4T1 cells assessed as histopathological change in lung at 100 uM, iv measured after 12 hrs followed by 2.5 W/cm2 NIR laser irradiation for 3 mins by hematoxylin and eosin staining based analysis. Type of data set: organism-based. The following applies: in vivo.
Data set [12] can be described thus: Half life in Sprague-Dawley rat at 100 uM, iv measured up to 24 hrs by IVIS spectrum imaging analysis. Conditions: in vivo. Format: ADME, organism-based.
Data set [13] in a line: Drug uptake in tumor of mouse 4T1 cells allografted in BALB/c mouse assessed as increase in ratio of fluorescence signal in tumor to normal tissue at 30 uM, iv measured after 12 to 48 hrs by NIR fluorescence imaging analysis. Format: ADME, organism-based, Neoplasm. Conditions: in vivo, time 12-48 hrs.
The subject of data set [14] is 4T1. The data set can be described thus: Induction of apoptosis in mouse 4T1 cells allografted in BALB/c mouse assessed as increase in total apoptotic cells at 100 uM, iv measured after 12 hrs followed by 2.5 W/cm2 NIR laser irradiation for 3 mins by hematoxylin and eosin staining based analysis. Type of data set: functional, organism-based.
Data set [15] can be described thus: MRT 0 to t in Sprague-Dawley rat at 100 uM, iv measured up to 24 hrs by IVIS spectrum imaging analysis. Type of data set: ADME, organism-based. The following applies: in vivo.
The test system of data set [16] is 4T1. The data set can be described thus: Antitumor activity in mouse 4T1 cells allografted in BALB/c mouse assessed as increase in temperature of tumor site at 100 uM, iv measured after 12 hrs followed by 2.5 W/cm2 NIR laser irradiation for 3 mins by infrared thermal imaging analysis. Type of data set: functional.
Data set [17] in a line: Cmax in Sprague-Dawley rat at 100 uM, iv measured up to 24 hrs by IVIS spectrum imaging analysis. Format: ADME, organism-based. On the set-up: time < 24 hrs, dose 100 µM, route iv. Conditions: in vivo.
Data set [18] is described as follows: Drug accumulation in BALB/c mouse kidney assessed as increase in fluorescence intensity at 30 uM, iv measured after 2 hrs by NIR fluorescence imaging analysis. Type of data set: ADME, organism-based. Conditions: in vivo.
Data set [19] in a line: Drug uptake in lymph node of mouse 4T1 cells allografted in BALB/c mouse assessed as increase in ratio of fluorescence signal in tumor lymph node to normal lymph node at 30 uM, iv measured up to 48 hrs by NIR fluorescence imaging analysis. Type of data set: ADME, organism-based. Conditions: in vivo.
Data set [20] deals with 4T1. Briefly: Cytotoxicity against mouse 4T1 cells assessed as cell viability at higher concentration incubated for 24 hrs by CCK-8 assay relative to control. Type of data set: functional.
Data set [21] is described as follows: Drug uptake in tumor of mouse 4T1 cells allografted in BALB/c mouse assessed as increase in fluorescence signal at 30 uM, iv measured after 12 hrs by NIR fluorescence imaging analysis. Type of data set: ADME, organism-based, Neoplasm. The following applies: in vivo.
Data set [22] concerns 4T1. The data set can be described thus: Antitumor activity against mouse 4T1 cells allografted in BALB/c mouse assessed as inhibition of tumor growth at 100 uM, iv treated for 12 hrs followed by 2.5 W/cm2 NIR laser irradiation for 3 mins and measured every 2 days. Format: functional, organism-based. The following applies: time 2.0 day.
Data set [23] relates to 4T1. The data set can be described thus: Induction of apoptosis in mouse 4T1 cells allografted in BALB/c mouse assessed as increase in total necrotic cells at 100 uM, iv measured after 12 hrs followed by 2.5 W/cm2 NIR laser irradiation for 3 mins by hematoxylin and eosin staining based analysis. Format: functional, organism-based.
Data set [24] is described as follows: Toxicity in BALB/c mouse allografted with mouse 4T1 cells assessed as histopathological change in kidney at 100 uM, iv measured after 12 hrs followed by 2.5 W/cm2 NIR laser irradiation for 3 mins by hematoxylin and eosin staining based analysis. Format: organism-based. Conditions: in vivo.
Data set [25] in a line: Drug accumulation in BALB/c mouse liver assessed as increase in fluorescence intensity at 30 uM, iv measured after 30 mins by NIR fluorescence imaging analysis. Format: ADME, organism-based. The following applies: in vivo, 0.5 h.
Data set [26] relates to 4T1. The data set can be described thus: Upregulation of XPNPEP expression in mouse 4T1 cells by Western blot analysis. Format: functional, cell-based. (Immunoblotting shows a protein as a band on a membrane.)
Data set [27] is described as follows: Drug uptake in tumor of mouse 4T1 cells allografted in BALB/c mouse assessed as XPNPEP2 expression by […] based analysis. Format: ADME, Neoplasm.

Each structure is given as a SMILES string. The source made the active and inactive calls. Bridge positions count the residues as written; N and C are the ends. Square brackets hold non-standard residues; d marks the D form. Peptide text beside a SMILES is read from it. I, II: the chains in the order shown. * marks the point of attachment. X1 = CC1(C)C(/C=C/C=C/C=C/C=C2/N(CCCCCC(=O)*)c3ccc4ccccc4c3C2(C)C)=[N+](CCCCS(=O)(=O)[O-])c2ccc3ccccc3c21; PEG4 = NCCOCCOCCOCCOCCC(=O)O

Results on three compounds are retold here after ChEMBL document CHEMBL5131392, “A novel ICG-labeled cyclic TMTP1 peptide dimer for sensitive tumor imaging and enhanced photothermal therapy in vivo” (Eur J Med Chem, 2022).

For orientation: AUC(0-t) means exposure summed from dosing to a finite time, without extrapolation to infinity. A word on the half-life: it is the time needed for the level to fall by half in the phase considered. Higher therefore signals slow loss. For orientation: MRT last means a mean duration of stay, worked out from the concentration-time curve. A word on the Cmax: it is the maximum level reached in the sampled fluid or tissue. In general, cell viability refers to a per cent measure of how many cells are alive, often set against a control. With `CC(C)[C@@H]1NC(=O)[C@H](CC(N)=O)NC(=O)CNC(=O)[C@@H](NC(=O)CNC(=O)CCOCCOCCOCCOCCNC(=O)CC[C@H](NC(=O)CCCCCN2/C(=C/C=C/C=C/C=C/C3=[N+](CCCCS(=O)(=O)[O-])c4ccc5ccccc5c4C3(C)C)C(C)(C)c3c2ccc2ccccc32)C(=O)NCCOCCOCCOCCOCCC(=O)NCC(=O)N[C@H]2CSSC[C@@H](C(=O)O)NC(=O)CNC(=O)[C@H](CCC(N)=O)NC(=O)[C@H](CCCNC(=N)N)NC(=O)[C@H](C(C)C)NC(=O)[C@H](C(C)C)NC(=O)[C@H](CC(N)=O)NC(=O)CNC2=O)CSSC[C@@H](C(=O)O)NC(=O)CNC(=O)[C@H](CCC(N)=O)NC(=O)[C@H](CCCNC(=N)N)NC(=O)[C@H](C(C)C)NC1=O` (I: X1-E[PEG4]GCGNVVRQGC-OH / II: [PEG4]GCGNVVRQGC-OH; amide I:1-II:N; disulfide I:4-I:12, II:3-II:11), the Drug uptake entry in [1], in [2], in data set [5], in data set [6], in data set [18] and in [19] was “Active” each time. Besides, the Drug uptake result in data set [21], in data set [25] and in data set [27] was “Active” throughout. Moreover, the Activity entry in [3], in data set [4], in data set [8], in [9], in data set [11] and in data set [24] was “Non-Toxic” throughout. The AUC(0-t) at 24 h, 100 µM in data set [7] amounted to 1.29 µM·h. Also, the outcome in [10], in data set [14], in data set [22], in data set [23] and in [26] was Active. This compound had a half-life at 100 µM in data set [12] of 5.9 h. Further, the T/C in data set [13] was 40. In [15], this compound came in with an MRT last at 24 h, 100 µM of 5.77 h. Moreover, the T in data set [16] was 51 °C. The Cmax at 100 µM in data set [17] was determined as 212 nM. The cell viability in data set [20] is reported as greater than 90%.
In the case of `CC(C)[C@@H]1NC(=O)[C@H](CC(N)=O)NC(=O)CNC(=O)[C@@H](NC(=O)CNC(=O)CCOCCOCCOCCOCCNC(=O)CCCCCN2/C(=C/C=C/C=C/C=C/C3=[N+](CCCCS(=O)(=O)[O-])c4ccc5ccccc5c4C3(C)C)C(C)(C)c3c2ccc2ccccc32)CSSC[C@@H](C(=O)O)NC(=O)CNC(=O)[C@H](CCC(N)=O)NC(=O)[C@H](CCCNC(=N)N)NC(=O)[C@H](C(C)C)NC1=O` ({X1-PEG4}-GCGNVVRQGC-OH; disulfide 2-10), the Drug uptake result in [5] is recorded as “Active”. Also, in data set [16], the T stood at 47 °C. Besides, in data set [22], the outcome was Active.
In data set [7], `CC1(C)C(/C=C/C=C/C=C/C=C2\N(CCCCS(=O)(=O)[O-])c3ccc4ccccc4c3C2(C)C)=[N+](CCCCS(=O)(=O)[O-])c2ccc3ccccc3c21.[Na+]` [INDOCYANINE GREEN] yielded an AUC(0-t) at 24 h, 100 µM of 0.0175 µM·h. The same compound had a half-life at 100 µM in data set [12] of 0.4 h. The compound further came in with an MRT last at 24 h, 100 µM in data set [15] of 0.251 h. The T in data set [16] is 40 °C. The compound further registered a Cmax at 100 µM in [17] of 57.6 nM.
